PMC7569734 (Bioorganic & medicinal chemistry letters, 2019)
“Also recorded” adds a separate entry of the source. Read-outs that look alike come from different tables or passages of the source. Marks after values point to notes of the source that are not given here.

How the values were obtained:
[1] = tested on: Type 2 GD patient-derived cells (L444P/L444P genotype); assay: GPN-induced lysosomal calcium release assay in Type 2 GD patient-derived cells; type: cell-based, human; settings: for Emax: Homo sapiens, read-out: Lysosomal Ca+2 Assay Emax, GD patient-derived cells, percent activation of basal GPN-induced calcium response measured in the absence of compound
[2] = tested on: Estrogen Receptor; assay: Estrogen receptor assay; type: cell-based

Row | estrogen receptor functional activity (in words) ([2]; 10 μM) | Compound | activity in lysosomal calcium release assay (in words) ([1]; GD patient-derived cells) | other results
1 |  | CC/C(=C(\c1ccccc1)c1ccc(OCCN(C)C)cc1)c1ccccc1 [Compound 1, tamoxifen, reference compound] | partially restores lysosomal calcium in GD patient-derived cells | Estrogen Receptor % Activity @ 10 μM (inhibition) [2]: 100%^††; estrogen receptor functional activity (in words) [2]: antagonist activity
2 |  | CCC(Cc1ccc(OCCN(C)C)cc1)c1ccccc1 (centres unmarked) [Compound 5] | somewhat more potent than and equally efficacious as tamoxifen | 
3 |  | CCC(C(=O)c1ccc(OCCN(C)C)cc1)c1ccccc1 (centres unmarked) [Compound 17] | little effect on lysosomal calcium release | 
4 |  | CCCC(C(=O)c1ccc(OCCN(C)C)cc1)c1ccccc1 (centres unmarked) [Compound 18] | little effect on lysosomal calcium release | 
5 |  | CC(C)C(C(=O)c1ccc(OCCN(C)C)cc1)c1ccccc1 (centres unmarked) [Compound 19] |  | Emax [1]: 54 to 60%
6 |  | CCCC(CCC)(C(=O)c1ccc(OCCN(C)C)cc1)c1ccccc1 [Compound 20] |  | Emax [1]: 54 to 60%
7 |  | CCCCC(C(=O)c1ccc(OCCN(C)C)cc1)c1ccccc1 (centres unmarked) [Compound 21] | little effect on lysosomal calcium release; also recorded: no activity | 
8 |  | CC(C)CC(C(=O)c1ccc(OCCN(C)C)cc1)c1ccccc1 (centres unmarked) [Compound 22] |  | potency relative to tamoxifen in calcium release assay ([1]; GD patient-derived cells, fold more potent than tamoxifen): 10 fold
9 | partial agonist activity | CC(C)CCC(C(=O)c1ccc(OCCN(C)C)cc1)c1ccccc1 (centres unmarked) [Compound 23] |  | efficacy relative to tamoxifen in calcium release assay ([1]; GD patient-derived cells, percent more efficacious than tamoxifen): roughly 30%
10 | partial agonist activity | CCCCCCC(C(=O)c1ccc(OCCN(C)C)cc1)c1ccccc1 (centres unmarked) [Compound 24] | little effect on lysosomal calcium release | 
11 | antagonist rather than an agonist | CCCCC(C(=O)c1ccc(OCCN(C)C)cc1)c1ccccc1CC (centres unmarked) [Compound 26] |  | 
12 |  | CCCCC(C(=O)c1ccc(OCCN(C)C)cc1)c1ccccc1C(C)C (centres unmarked) [Compound 28] |  | EC50 ([1]; read-out: Lysosomal Ca+2 Assay EC50, GD patient-derived cells, GPN-induced calcium release): 1480 nM

Row | Compound | estrogen receptor functional activity (in words) ([2]; 10 μM) | activity in lysosomal calcium release assay (in words) ([1]; GD patient-derived cells) | other results
13 | CC(C)CC(C(=O)c1ccc(OCCN(C)C)cc1)c1ccccc1C1CC1 (centres unmarked) [Compound 31] | devoid of estrogenic activity; also recorded: lack of any estrogenic activity |  | 
